{"source": "patent US8648169B2", "about": "“Methods of use of Trk receptor modulators” (The Royal Institution for the Advancement of …, priority 2006, dated 2014)", "key": {"axotomized RGCs [1]": {"system": "axotomized RGCs", "assay": "RGC survival in optic nerve axotomy", "assay_type": "in vivo", "description": "It is important to contrast the results in this glaucoma model with those published in optic nerve axotomy (where the optic nerve is sectioned or crushed and RGC axons are damaged). The two are very different models of RGC damage, where glaucoma is chronic and progressive and is an intraocular disease while axotomy is acute and is an extraocular disease. Thus, in optic nerve axotomy NTFs have been applied successfully. The survival of an axotomized optic nerve was promoted by NGF, BDNF, NT-4, CNTF, as well as bFGF, and GDNF."}, "TrkA": {"target": "TrkA (Homo sapiens, UniProt P04629)", "sequence (P04629 33-796, species assumed)": "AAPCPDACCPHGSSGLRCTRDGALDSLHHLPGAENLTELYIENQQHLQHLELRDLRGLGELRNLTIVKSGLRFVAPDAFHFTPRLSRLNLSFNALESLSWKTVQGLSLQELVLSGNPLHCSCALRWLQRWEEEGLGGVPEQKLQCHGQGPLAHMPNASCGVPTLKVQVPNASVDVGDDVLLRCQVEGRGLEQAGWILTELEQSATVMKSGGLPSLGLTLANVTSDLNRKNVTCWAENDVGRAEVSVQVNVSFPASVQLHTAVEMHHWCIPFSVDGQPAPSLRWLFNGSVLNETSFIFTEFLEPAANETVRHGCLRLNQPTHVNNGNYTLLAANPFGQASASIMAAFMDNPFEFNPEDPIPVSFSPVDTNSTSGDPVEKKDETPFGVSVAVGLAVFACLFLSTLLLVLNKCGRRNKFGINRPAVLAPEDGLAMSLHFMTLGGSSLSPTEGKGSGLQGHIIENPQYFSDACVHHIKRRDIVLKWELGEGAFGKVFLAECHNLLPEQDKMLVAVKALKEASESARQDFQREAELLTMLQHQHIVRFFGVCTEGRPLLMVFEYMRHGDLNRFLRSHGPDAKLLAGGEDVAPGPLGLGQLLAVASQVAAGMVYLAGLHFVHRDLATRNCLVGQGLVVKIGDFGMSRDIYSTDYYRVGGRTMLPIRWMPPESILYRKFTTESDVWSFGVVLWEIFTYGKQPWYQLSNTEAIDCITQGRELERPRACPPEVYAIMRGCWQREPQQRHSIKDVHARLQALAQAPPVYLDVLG", "settings": "irrespective of whether the p75 receptor is expressed; cited from earlier work"}, "p75 receptor": {"target": "T1, p75 receptor (Homo sapiens, UniProt P08138)", "T1 sequence (P08138 29-427)": "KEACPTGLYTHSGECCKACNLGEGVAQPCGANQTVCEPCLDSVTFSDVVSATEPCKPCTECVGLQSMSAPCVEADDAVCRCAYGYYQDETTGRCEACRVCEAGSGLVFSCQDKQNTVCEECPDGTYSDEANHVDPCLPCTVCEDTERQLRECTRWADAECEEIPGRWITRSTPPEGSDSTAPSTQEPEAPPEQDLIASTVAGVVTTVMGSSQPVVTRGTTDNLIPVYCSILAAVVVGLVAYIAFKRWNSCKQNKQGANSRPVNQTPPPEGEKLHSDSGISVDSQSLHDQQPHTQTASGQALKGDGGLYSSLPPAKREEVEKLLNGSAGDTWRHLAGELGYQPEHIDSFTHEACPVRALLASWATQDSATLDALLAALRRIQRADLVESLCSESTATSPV", "settings": "cited from earlier work"}, "CNS": {"system": "CNS", "settings": "cited from earlier work"}, "[2]": {"system": "retinal ganglion cells (RGCs)", "assay": "RGC loss in ocular hypertension (glaucoma) model, retrogradely labeled surviving RGCs counted in flat mounted retinas;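 for all read-outs here: female Wistar rats aged 8 weeks with three episcleral veins cauterized in the right eye, sham-operated left eye as normal IOP control, at least six retinas averaged per group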", "settings": "for % RGCs loss at day 49 (vs. Normal) / % RGCs loss at day 42 (vs. Norma): cauterized eye; for RGC loss (% of normal IOP): +daily betaxolol (days 4-35)", "quoted_text": "Using retrograde tracers, surviving RGCs were labeled at the cell soma and flat retinal spreads were analyzed for RGC numbers (Table 2).\nSurviving RGCs, identified by retrograde labeling, were counted at day 42 post-surgery. In this protocol, the TrkA agonist or controls were not given between days 21 and 42, to evaluate whether any protection could be long-lived. […] Each data point represents the average of at least 6 retinas/experimental group±sd. […] Peptidomimetic D3 (TrkA agonist) or controls were injected intraocularly, each injection at 1 μg in 1 μl. […] Retrogradely labeled surviving RGCs at day 42 post-cauterization were counted in flat mounted retinas (except rows 3 and 4 that were terminated at days 14 and 28). Two investigators counted the RGCs, with one unaware of the groups.\nEpiscleral cauterization was performed under anesthesia in Wistar rats, female, 8 weeks of age. After a conjunctival incision, extra-ocular muscles were isolated and the major limbal draining veins were identified based on location, relative immobility, larger caliber and branching pattern. Cauterization of three episcleral vessels in the right eye were done with a 30″ cautery tip. The left eye in each animal was used as normal IOP control after sham-surgery (conjuctival incisions with no cauterization). […] Planar ophthalmoscopy was used to confirm normal perfusion of the retina at elevated IOP. […] IOP was measured using a Tonopen XL tonometer under light anesthesia (intramuscular injection of ketamine, 4 mg/kg; xylazine, 0.32 mg/kg; and acepromazine, 0.4 mg/kg). Initially IOP was measured daily (three consecutive readings are taken each time) and then weekly until termination.\nA puncture was made in the eye wall with a 30 G needle to place a cannula in the orbit. The tip of the needle was inserted at a 45° angle through the sclera into the vitreous body. This route of administration avoided injury to eye structures."}, "axotomized RGCs [3]": {"system": "axotomized RGCs", "settings": "other studies; cited from earlier work"}, "[4]": {"system": "intraocular pressure (IOP) of rat eyes", "description": "High IOP was induced in rat eyes, by reducing aqueous humor outflow through episcleral vein cauterization, while the contralateral eyes were sham-operated and were used as controls (FIG. 2)."}, "[5]": {"settings": "daily betaxolol days 14-49 (~17 days of high IOP), intraocular injections at days 14 & 21"}, "[6]": {"settings": "daily betaxolol days 14 to 42 (~17 days of high IOP), intraocular injections 1 μg at days 14 & 21"}, "[7]": {"settings": "no betaxolol, 42 days of high IOP, intraocular injections 1 μg at days 14 & 21"}, "[8]": {"settings": "no betaxolol, 49 days of high IOP, intraocular injections at days 14 & 21"}}, "note": "Values joined by “and” are separate entries in the source; they are usually repeats but may differ in a detail not shown here. Identical values can stand only once. “Also recorded” adds a separate entry of the source. No end group written: not given here."}
{"compound": "NCCCC[C@@H]1NC(=O)C(CCC(=O)O)NC(=O)c2cc([N+](=O)[O-])ccc2OCCC(C(=O)NCC(=O)O)NC1=O", "note": "(stereo partly drawn) [D3]", "values": [{"measurement": "survival of axotomized RGCs", "setting": "axotomized RGCs [1]", "value": "strong survival-promoting effects"}, {"measurement": "activity at TrkA", "setting": "TrkA", "value": "selective partial agonist"}, {"measurement": "binding to p75", "setting": "p75 receptor", "value": "does not bind"}, {"measurement": "effect on cholinergic neurons in the CNS", "setting": "CNS; evaluated previously, spatial memory tests", "value": "protect the number, phenotype, and function of cholinergic neurons"}, {"measurement": "% RGCs loss at day 49 (vs. Normal)", "setting": "[2]; [5]", "value": "18 ± 6", "unit": "%"}, {"measurement": "% RGCs loss at day 42 (vs. Norma)", "setting": "[2]; [6]", "value": "11% and 11 ± 4%"}, {"measurement": "% RGCs loss at day 42 (vs. Norma)", "setting": "[2]; [7]", "value": "29% and 29 ± 3%"}, {"measurement": "% RGCs loss at day 49 (vs. Normal)", "setting": "[2]; [8]", "value": "26 ± 6", "unit": "%"}, {"measurement": "protection of RGCs, formula (testloss−day14loss)/(day42loss−day14loss)*100", "setting": "[2]; day 42, intraocular injections at days 14 and 21, no betaxolol", "value": "~25", "unit": "%"}, {"measurement": "protection of RGCs", "setting": "[2]; day 42, intraocular injections at days 14 and 21 in combination with daily betaxolol", "value": "> 90", "unit": "%"}, {"measurement": "effect on RGC survival / apoptosis", "setting": "[2]; day 49 glaucoma, intraocular injections at days 14 and 21, alone or with betaxolol", "value": "markedly reduced RGC apoptosis"}]}
{"compound": "YCATDIKGKECY (also: cyclic) [C(28-35) peptide]", "values": [{"measurement": "protection of RGCs in vivo in optic nerve axotomy", "setting": "axotomized RGCs [3]", "value": "short-term protection"}, {"measurement": "effect on p75-NGF interactions", "setting": "p75 receptor", "value": "antagonist"}, {"measurement": "in vivo stability and efficacy in the CNS", "setting": "CNS; previous in vivo studies", "value": "in vivo stability and efficacy"}, {"measurement": "% RGCs loss at day 49 (vs. Normal)", "setting": "[2]; [5]", "value": "29 ± 4", "unit": "%"}, {"measurement": "% RGCs loss at day 49 (vs. Normal)", "setting": "[2]; [8]", "value": "32 ± 11", "unit": "%"}, {"measurement": "effect on RGC survival / apoptosis", "setting": "[2]; rat, in vivo", "value": "did not enhance RGC survival; also recorded: did not prevent or reduce RGC death"}]}
{"compound": "CC(C)NCC(O)COc1ccc(CCOCC2CC2)cc1", "note": "(stereo not drawn) [Betaxolol, betaxolol, reference compound]", "values": [{"measurement": "IOP by day 7", "setting": "[4]; cauterized rats receiving daily topical betaxolol", "value": "normal IOPs"}, {"measurement": "effect on normal IOP of non-cauterized eyes", "setting": "[4]; daily topical betaxolol, normal eyes", "value": "no significant effect"}, {"measurement": "% RGCs loss at day 49 (vs. Normal)", "setting": "[2]; daily betaxolol days 14-49 alone, no intraocular injection", "value": "27 ± 5", "unit": "%"}, {"measurement": "% RGCs loss at day 49 (vs. Normal)", "setting": "[2]; daily betaxolol days 14-49 alone, no intraocular injection, listed as betaxolol", "value": 27, "unit": "%"}, {"measurement": "% RGCs loss at day 42 (vs. Norma)", "setting": "[2]; daily betaxolol days 14 to 42 alone, no intraocular injection", "value": "21 ± 2", "unit": "%"}, {"measurement": "% RGCs loss at day 42 (vs. Norma)", "setting": "[2]; daily betaxolol days 14 to 42 alone, no intraocular injection, listed as betaxolol", "value": 21, "unit": "%"}, {"measurement": "RGC loss (% of normal IOP)", "setting": "[2]; day 0 post-cautery", "value": 0, "unit": "%"}, {"measurement": "RGC loss (% of normal IOP)", "setting": "[2]; day 7 post-cautery", "value": "3 ± 3", "unit": "%"}, {"measurement": "RGC loss (% of normal IOP)", "setting": "[2]; day 14 post-cautery", "value": "4 ± 3", "unit": "%"}, {"measurement": "RGC loss (% of normal IOP)", "setting": "[2]; day 21 post-cautery", "value": "7 ± 3", "unit": "%"}, {"measurement": "RGC loss (% of normal IOP)", "setting": "[2]; day 28 post-cautery", "value": "10 ± 4", "unit": "%"}, {"measurement": "RGC loss (% of normal IOP)", "setting": "[2]; day 35 post-cautery", "value": "14 ± 2", "unit": "%"}, {"measurement": "RGC loss (% of normal IOP)", "setting": "[2]; day 42 post-cautery", "value": "20 ± 5", "unit": "%"}]}
{"compound": "NGF: Nerve Growth Factor, neurotrophin that binds TrkA and p75", "values": [{"measurement": "% RGCs loss at day 42 (vs. Norma)", "setting": "[2]; [6]", "value": "19 ± 4", "unit": "%"}, {"measurement": "% RGCs loss at day 42 (vs. Norma)", "setting": "[2]; [7]", "value": "42 ± 5", "unit": "%"}, {"measurement": "protection of RGCs from death", "setting": "[2]; day 42 glaucoma, intraocular injections, with or without betaxolol", "value": "did not protect"}]}
